# Results reported in US20260042769A1, “TRIARYL AGONISTS OF ALPHA-2 ADRENERGIC RECEPTORS” (ALCEPTOR THERAPEUTICS, INC., priority 2023, published 2026).
# Target: T1, human ADRA2B receptor (Homo sapiens, UniProt P18089)
# T1 construct: expressed in transfected cells
# T1 sequence (P18089 1-450): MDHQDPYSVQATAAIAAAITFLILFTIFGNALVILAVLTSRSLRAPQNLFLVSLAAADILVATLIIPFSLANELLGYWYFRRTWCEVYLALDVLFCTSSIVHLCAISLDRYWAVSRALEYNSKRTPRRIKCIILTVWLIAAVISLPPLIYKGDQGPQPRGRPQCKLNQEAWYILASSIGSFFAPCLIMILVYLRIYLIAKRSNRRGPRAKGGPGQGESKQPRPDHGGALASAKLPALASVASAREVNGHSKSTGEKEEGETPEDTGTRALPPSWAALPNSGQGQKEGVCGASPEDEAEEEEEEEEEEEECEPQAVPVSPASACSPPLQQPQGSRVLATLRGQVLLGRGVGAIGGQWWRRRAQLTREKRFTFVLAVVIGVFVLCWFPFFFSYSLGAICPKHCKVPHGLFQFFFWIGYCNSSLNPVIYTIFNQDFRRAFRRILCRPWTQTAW
# Assay: ADRA2B arrestin agonist assay
# Assay type: cell-based
# Conditions: CHO-K1 cells stably expressing human ADRA2B; read-out: Beta-Arrestin - Human Alpha2B EC50
# Experimental: ADRA2A and ADRA2B Arrestin Agonist Assay Method
# The arrestin assay uses frozen CHO-K1 cell lines stably expressing human ADRA2A and ADRA2B receptors. Cells are frozen following normal cell freezing protocols. Briefly, cells are washed with PBS and then dissociated with 0.25% trypsin. Dissociated cells are quenched in full media and then collected by centrifugation at 290×g for 5 minutes. […] Cells are stored at −80° C. (or in liquid N2 if stored >6 months) until the day of the assay.
# On the day before the assay, frozen cells are thawed in a 37° C. water bath, brought up in 20 mL of full media, and collected via centrifugation at 290×g for 5 minutes. […] Cells are incubated overnight in a 37° C., 5% CO2 cell incubator.
# On the day of the assay, agonists are diluted in Opti-MEM to 3.5x of the final assay concentration. 4 μL of agonists are added to the cells and incubated for 2 hours at 37° C. in a 5% CO2 cell incubator. 6 μL of arrestin detection reagents are dispensed onto the cells and the plates are incubated for 2 hours at room temperature. […] Plates are read on an Envision luminescence plate reader.
row,SMILES,EC50 [nM]
1,"Cc1cccc(C(Cc2ccc3nccn3c2)c2c[nH]cn2)c1C (centres unmarked) [Compound 401, 4-[2-(1,3a-diaza-5-indenyl)-1-(2,3-xylyl)ethyl]imidazole]",< 10
2,"COc1nccc(C[C@@H](c2c[nH]cn2)c2cccc3ccn(C)c23)n1 [Compound 348, 4-[(R)-2-(4-imidazolyl)-2-(1-methyl-7-indolyl)ethyl]-2-methoxypyrimidine]",< 10
3,"Cc1cccc(C(Cc2ncns2)c2c[nH]cn2)c1C (centres unmarked) [Compound 248, 5-[2-(4-imidazolyl)-2-(2,3-xylyl)ethyl]-1,2,4-thiadiazole]",< 10
4,"Cc1cccc(C(Cc2ccc(C(N)=O)nc2)c2c[nH]cn2)c1C (centres unmarked) [Compound 288, 5-[2-(4-imidazolyl)-2-(2,3-xylyl)ethyl]-2-pyridinecarboxamide]",< 10
5,"COc1c(C)cccc1C(Cc1cn(C)nn1)c1c[nH]cn1 (centres unmarked) [Compound 260, 4-[2-(4-imidazolyl)-2-(2-methoxy-3-tolyl)ethyl]-1-methyl-1H-1,2,3-triazole]",50 to 500
6,"COc1c(C)cccc1C(Cc1cocn1)c1c[nH]cn1 (centres unmarked) [Compound 388, 4-[2-(4-imidazolyl)-2-(2-methoxy-3-tolyl)ethyl]-1,3-oxazole-formic acid (1/1)]",> 500
7,"Cc1cccc(C(Cc2ccc(F)nc2)c2c[nH]cn2)c1F (centres unmarked) [Compound 323, 4-[2-(6-fluoro-3-pyridyl)-1-(2-fluoro-3-tolyl)ethyl]imidazole]",50 to 500
8,"Cc1cccc([C@H](Cc2ccnn2CF)c2c[nH]cn2)c1C [Compound 262, 5-[(S)-2-(4-imidazolyl)-2-(2,3-xylyl)ethyl]-1-(fluoromethyl)pyra-zole]",10 to 50
9,"COc1cc(CC(c2c[nH]cn2)c2cccc(C)c2C)nc(OC)n1 (centres unmarked) [Compound 307, 4-[2-(4-imidazolyl)-2-(2,3-xylyl)ethyl]-2,6-dimethoxypyrimidine]",< 10
10,"Cc1nnc(CC(c2c[nH]cn2)c2cccc(C)c2C)s1 (centres unmarked) [Compound 263, 2-[2-(4-imidazolyl)-2-(2,3-xylyl)ethyl]-5-methyl-1,3,4-thiadiazole]",50 to 500
11,"Cc1cccc([C@H](Cc2cn(C)nn2)c2c[nH]cn2)c1C [Compound 240, 4-[(S)-2-(4-imidazolyl)-2-(2,3-xylyl)ethyl]-1-methyl-1H-1,2,3-triazole]",< 10
12,"Cn1ncc2c(C(Cc3cocn3)c3c[nH]cn3)cccc21 (centres unmarked) [Compound 378, 4-[1-(4-imidazolyl)-2-(1,3-oxazol-4-yl)ethyl]-1-methyl-1H-indazole]",50 to 500
13,"c1cc2c(c([C@@H](Cc3cc[nH]n3)c3c[nH]cn3)c1)OCC2 [Compound 237, 3-[(R)-2-(2,3-dihydro-1-benzofuran-7-yl)-2-(4-imidazolyl)ethyl]pyrazole]",> 500
14,"COc1nc(CC(c2c[nH]cn2)c2cccc3c2OCC3)ccc1F (centres unmarked) [Compound 313, 4-[1-(2,3-dihydro-1-benzofuran-7-yl)-2-(5-fluoro-6-methoxy-2-pyridyl)ethyl]imidazole]",< 10
15,"c1ccc(C[C@@H](c2c[nH]cn2)c2cccc3c2OCC3)nc1 [Compound 252, 4-[(R)-1-(2,3-dihydro-1-benzofuran-7-yl)-2-(2-pyridyl)ethyl]imida-]",10 to 50
16,"Cc1nc(C[C@H](c2c[nH]cn2)c2cccc(C)c2C)c(C)o1 [Compound 380, 4-[(S)-2-(4-imidazolyl)-2-(2,3-xylyl)ethyl]-2,5-dimethyl-1,3-oxazole]",> 500
17,"COc1cc(CC(c2c[nH]cn2)c2cccc3c2OCC3)ccn1 (centres unmarked) [Compound 314, 4-[1-(2,3-dihydro-1-benzofuran-7-yl)-2-(2-methoxy-4-pyridyl)ethyl]imidazole]",< 10
18,"COc1nccc(CC(c2c[nH]cn2)c2cccc(Cl)c2F)n1 (centres unmarked) [Compound 190, 4-[2-(3-chloro-2-fluorophenyl)-2-(4-imidazolyl)ethyl]-2-methoxypyrimidine]",10 to 50
19,"OCc1nccc(CC(c2c[nH]cn2)c2cccc3c2OCC3)n1 (centres unmarked) [Compound 344, {4-[2-(2,3-dihydro-1-benzofuran-7-yl)-2-(4-imidazolyl)ethyl]-2-pyrimidinyl}methanol]",< 10
20,"COc1c(Cl)cccc1C(Cc1ccnc(C)n1)c1c[nH]cn1 (centres unmarked) [Compound 187, 4-[2-(3-chloro-2-methoxyphenyl)-2-(4-imidazolyl)ethyl]-2-methylpyrimidine]",50 to 500
21,"c1cc2c(c([C@@H](Cc3cocn3)c3c[nH]cn3)c1)OCC2 [Compound 371, 4-[(R)-2-(2,3-dihydro-1-benzofuran-7-yl)-2-(4-imidazolyl)ethyl] 1,3-oxazole]",50 to 500
22,"OCc1nccc(CC(c2c[nH]cn2)c2cccc(Cl)c2F)n1 (centres unmarked) [Compound 191, {4-[2-(3-chloro-2-fluorophenyl)-2-(4-imidazolyl)ethyl]-2-pyrimidinyl}methanol]",10 to 50
23,"Cc1cccc(C(Cc2ccns2)c2c[nH]cn2)c1C (centres unmarked) [Compound 244, 5-[2-(4-imidazolyl)-2-(2,3-xylyl)ethyl]isothiazole]",< 10
24,"c1cc2c(c([C@H](Cc3cocn3)c3c[nH]cn3)c1)OCCO2 [Compound 384, 4-[(S)-2-(2,3-dihydro-1,4-benzodioxin-5-yl)-2-(4-imidazolyl)ethyl]-1,3-oxazole]",10 to 50
25,"Cc1cccc([C@@H](Cc2ccnn2C)c2c[nH]cn2)c1F [Compound 246, 5-[(R)-2-(2-fluoro-3-tolyl)-2-(4-imidazolyl)ethyl]-1-methylpyrazole]",50 to 500
26,"COc1nccc(CC(c2cccc(Cl)c2)c2c[nH]cn2)n1 (centres unmarked) [Compound 340, 4-[2-(m-chlorophenyl)-2-(4-imidazolyl)ethyl]-2-methoxypyrimidine]",50 to 500

# Other lines, results leading:
row,EC50 [nM],SMILES
1,< 10,"Cc1cccc([C@@H](Cc2ccnc(CF)n2)c2c[nH]cn2)c1C [Compound 153, 4-[(R)-2-(4-imidazolyl)-2-(2,3-xylyl)ethyl]-2-(fluoromethyl) pyrimidine]"
2,10 to 50,"[2H]C([2H])([2H])Oc1c(C)cccc1C(Cc1ccnc(C)n1)c1c[nH]cn1 (centres unmarked) [Compound 359, 4-{2-(4-imidazolyl)-2-[2-(^2H3)methoxy-3-tolyl]ethyl}-2-methylpyrimidine]"
3,< 10,"COc1cc(CC(c2c[nH]cn2)c2cccc(C)c2C)ccn1 (centres unmarked) [Compound 274, 4-[2-(2-methoxy-4-pyridyl)-1-(2,3-xylyl)ethyl]imidazole]"
4,< 10,"Cc1cc(CC(c2c[nH]cn2)c2cccc(C)c2C)nc(C(C)(C)O)n1 (centres unmarked) [Compound 207, 2-{4-[2-(4-imidazolyl)-2-(2,3-xylyl)ethyl]-6-methyl 2-pyrimidinyl}-2-propanol]"
5,< 10,"COc1nccc(CC(c2c[nH]cn2)c2cccc(C(F)(F)F)c2C)n1 (centres unmarked) [Compound 202, 4-{2-(4-imidazolyl)-2 [3-(trifluoromethyl)-2-tolyl]ethyl}-2-methoxypyrimidine]"
6,< 10,"Cc1cccc([C@@H](Cc2ccnc(C(C)(C)F)n2)c2c[nH]cn2)c1C [Compound 205, 4-[(R)-2-(4-imidazolyl)-2-(2,3-xylyl)ethyl]-2-(1-fluoro-1-methylethyl)pyrimidine]"
7,10 to 50,"Cc1cccc(C(Cc2cccnc2C)c2c[nH]cn2)c1C (centres unmarked) [Compound 254, 4-[2-(2-methyl-3-pyridyl)-1-(2,3-xylyl)ethyl]imidazole]"
8,> 500,"COCc1nccc(C[C@H](c2c[nH]cn2)c2cccc(C)c2C)n1 [Compound 346, 4-[(S)-2-(4-imidazolyl)-2-(2,3-xylyl)ethyl]-2-(methoxymethyl)pyrimidine]"
9,< 10,"COc1nccc(C[C@@H](c2c[nH]cn2)c2cccc(C)c2OC)n1 [Compound 179, 4-[(R)-2-(4-imidazolyl)-2-(2-methoxy-3-tolyl)ethyl]-2-methoxypyrimidine]"
10,< 10,"COc1nccc(CC(c2c[nH]cn2)c2cccc(C)c2F)n1 (centres unmarked) [Compound 155, 4-[2-(2-fluoro-3-tolyl)-2-(4-imidazolyl)ethyl]-2-methoxypyrimidine]"
11,> 500,"Cc1cccc([C@@H](Cc2cn(C)nn2)c2c[nH]cn2)c1C [Compound 239, 4-[(R)-2-(4-imidazolyl)-2-(2,3-xylyl)ethyl]-1-methyl-1H-1,2,3-triazole]"
12,10 to 50,"Cc1nc(C[C@@H](c2c[nH]cn2)c2cccc(C)c2C)co1 [Compound 373, 4-[(R)-2-(4-imidazolyl)-2-(2,3-xylyl)ethyl]-2-methyl-1,3-oxazole]"
13,< 10,"Cc1nccc(CC(c2c[nH]cn2)c2cccc(Cl)c2C)n1 (centres unmarked) [Compound 158, 4-[2-(3-chloro-2-tolyl)-2-(4-imidazolyl)ethyl]-2-methylpyrimidine]"
14,< 10,"Cc1cccc(C(Cc2ccncc2F)c2c[nH]cn2)c1C (centres unmarked) [Compound 394, 4-[2-(3-fluoro-4-pyridyl)-1-(2,3-xylyl)ethyl]imidazole]"

# Same assay, conditions: read-out: Beta-Arrestin - Human Alpha2B EC50
row,SMILES,EC50 [nM]
1,"Cc1cccc([C@H](Cc2ccncc2)c2c[nH]cn2)c1C [Compound 319, 4-[(S)-2-(4-pyridyl)-1-(2,3-xylyl)ethyl]imidazole]",< 10
